According to ChEMBL document CHEMBL5465560, “Selectivity Literature for EUbOPEN Chemogenomic Library” (2024):

Assays:
[1] = target: Fibroblast growth factor receptor 1 (Homo sapiens, UniProt P11362); test: Selectivity interaction (SelectScreen profiling (Invitrogen)) EUB0000607a FGFR1; details: at 2 µM
[2] = target: T1, Mitogen-activated protein kinase 12 (Homo sapiens) (UniProt P53778); test: Selectivity interaction (KinomeScan (DiscoverX)) EUB0000607a MAPK12; details: at 10 µM
T1 sequence (whole entry): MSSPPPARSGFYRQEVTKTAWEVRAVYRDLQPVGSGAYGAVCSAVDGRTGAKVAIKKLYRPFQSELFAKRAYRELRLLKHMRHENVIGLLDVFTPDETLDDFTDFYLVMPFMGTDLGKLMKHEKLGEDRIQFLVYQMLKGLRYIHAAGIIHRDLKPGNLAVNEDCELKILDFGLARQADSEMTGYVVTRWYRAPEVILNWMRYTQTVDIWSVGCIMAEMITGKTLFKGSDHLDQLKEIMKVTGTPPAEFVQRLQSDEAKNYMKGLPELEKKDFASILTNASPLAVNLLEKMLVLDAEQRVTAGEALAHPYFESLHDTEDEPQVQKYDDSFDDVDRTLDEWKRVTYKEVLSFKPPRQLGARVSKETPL

[3] = target: Ribosomal protein S6 kinase beta-1 (Homo sapiens, UniProt P23443); test: Selectivity interaction (SelectScreen profiling (Invitrogen)) EUB0000607a RPS6KB1; details: at 2 µM
Sequence of Ribosomal protein S6 kinase beta-1 (P23443 whole entry, looked up): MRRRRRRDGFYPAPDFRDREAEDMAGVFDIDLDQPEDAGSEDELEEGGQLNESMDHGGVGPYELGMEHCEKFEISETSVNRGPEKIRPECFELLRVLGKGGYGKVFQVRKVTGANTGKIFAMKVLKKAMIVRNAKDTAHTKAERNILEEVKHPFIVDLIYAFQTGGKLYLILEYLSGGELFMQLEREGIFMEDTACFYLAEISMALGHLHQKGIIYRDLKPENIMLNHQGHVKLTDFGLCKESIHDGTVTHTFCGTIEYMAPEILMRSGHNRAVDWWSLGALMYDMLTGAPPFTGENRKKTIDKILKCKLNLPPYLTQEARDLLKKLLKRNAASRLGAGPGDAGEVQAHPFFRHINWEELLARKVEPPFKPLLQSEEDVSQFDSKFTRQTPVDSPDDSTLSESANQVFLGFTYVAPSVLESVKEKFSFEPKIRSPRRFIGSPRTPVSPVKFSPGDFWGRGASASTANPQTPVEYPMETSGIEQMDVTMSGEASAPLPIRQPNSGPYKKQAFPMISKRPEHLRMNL

[4] = target: Dual specificity mitogen-activated protein kinase kinase 1 (Homo sapiens, UniProt Q02750); test: Selectivity interaction (Kinase panel (Invitrogen)) EUB0000639a MAP2K1; details: at 200 nM
Sequence of Dual specificity mitogen-activated protein kinase kinase 1 (Q02750 whole entry): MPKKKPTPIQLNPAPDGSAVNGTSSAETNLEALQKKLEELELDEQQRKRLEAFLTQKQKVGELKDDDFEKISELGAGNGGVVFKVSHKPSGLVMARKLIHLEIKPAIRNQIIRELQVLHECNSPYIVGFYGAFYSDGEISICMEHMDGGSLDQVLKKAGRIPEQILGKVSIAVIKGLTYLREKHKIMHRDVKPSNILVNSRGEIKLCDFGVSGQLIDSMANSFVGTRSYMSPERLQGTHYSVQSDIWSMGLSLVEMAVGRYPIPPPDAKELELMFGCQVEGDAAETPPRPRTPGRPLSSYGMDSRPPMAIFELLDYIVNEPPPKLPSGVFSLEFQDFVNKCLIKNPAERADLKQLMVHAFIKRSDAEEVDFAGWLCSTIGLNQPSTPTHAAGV

[5] = target: Prostaglandin G/H synthase 1 (Homo sapiens) (UniProt P23219); test: Selectivity interaction (Safety Panel 44tm (Eurofins)) EUB0000162b PTGS1; details: at 10 µM
[6] = target: Dual specificity mitogen-activated protein kinase kinase 2 (Homo sapiens) (UniProt P36507); test: Selectivity interaction (KinomeScan (DiscoverX)) EUB0000695a MAP2K2; details: at 100 nM
Sequence of Dual specificity mitogen-activated protein kinase kinase 2 (Homo sapiens) (P36507 whole entry, canonical isoform): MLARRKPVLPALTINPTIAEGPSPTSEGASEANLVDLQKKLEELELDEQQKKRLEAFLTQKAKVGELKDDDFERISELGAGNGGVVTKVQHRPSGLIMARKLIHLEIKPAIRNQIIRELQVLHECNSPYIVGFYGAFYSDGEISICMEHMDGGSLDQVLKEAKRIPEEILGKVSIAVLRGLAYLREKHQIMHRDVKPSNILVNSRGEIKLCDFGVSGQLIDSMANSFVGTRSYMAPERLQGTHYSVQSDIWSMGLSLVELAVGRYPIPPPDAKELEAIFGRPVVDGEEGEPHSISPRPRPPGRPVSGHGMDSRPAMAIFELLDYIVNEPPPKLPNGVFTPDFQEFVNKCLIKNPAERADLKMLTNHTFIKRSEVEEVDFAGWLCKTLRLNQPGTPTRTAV

[7] = target: T2, Phosphatidylinositol 4,5-bisphosphate 3-kinase catalytic subunit delta isoform (Homo sapiens) (UniProt O00329); test: Selectivity interaction (KinomeScan (DiscoverX)) EUB0000595a PIK3CD; details: at 10 µM
T2 sequence (whole entry): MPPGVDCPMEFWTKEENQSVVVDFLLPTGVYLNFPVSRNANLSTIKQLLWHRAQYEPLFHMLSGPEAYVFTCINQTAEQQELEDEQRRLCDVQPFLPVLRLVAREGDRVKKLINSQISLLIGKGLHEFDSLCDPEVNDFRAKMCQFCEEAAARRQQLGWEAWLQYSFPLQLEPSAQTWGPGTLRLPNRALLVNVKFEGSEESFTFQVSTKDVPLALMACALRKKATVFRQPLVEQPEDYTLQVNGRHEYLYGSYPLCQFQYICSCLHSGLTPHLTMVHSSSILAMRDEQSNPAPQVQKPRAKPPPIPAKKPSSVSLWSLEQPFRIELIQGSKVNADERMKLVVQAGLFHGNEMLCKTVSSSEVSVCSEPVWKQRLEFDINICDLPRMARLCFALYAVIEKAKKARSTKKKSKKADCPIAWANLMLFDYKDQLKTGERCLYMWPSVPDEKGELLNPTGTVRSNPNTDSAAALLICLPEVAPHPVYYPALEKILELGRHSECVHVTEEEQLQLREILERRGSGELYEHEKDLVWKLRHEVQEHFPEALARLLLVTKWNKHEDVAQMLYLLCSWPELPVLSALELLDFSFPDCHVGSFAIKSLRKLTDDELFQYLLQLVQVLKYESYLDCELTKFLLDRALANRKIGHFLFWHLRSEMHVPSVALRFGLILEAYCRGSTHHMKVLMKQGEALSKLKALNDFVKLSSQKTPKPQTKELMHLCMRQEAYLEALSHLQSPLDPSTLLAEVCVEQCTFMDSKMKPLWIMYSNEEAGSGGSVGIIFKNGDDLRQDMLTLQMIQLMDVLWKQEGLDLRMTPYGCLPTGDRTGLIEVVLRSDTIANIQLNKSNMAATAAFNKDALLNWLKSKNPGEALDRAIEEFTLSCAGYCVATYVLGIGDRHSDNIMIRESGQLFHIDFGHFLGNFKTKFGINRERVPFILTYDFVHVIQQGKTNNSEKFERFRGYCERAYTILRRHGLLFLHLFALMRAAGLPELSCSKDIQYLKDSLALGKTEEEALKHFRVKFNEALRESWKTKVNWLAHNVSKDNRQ

[8] = target: RAC-beta serine/threonine-protein kinase (Homo sapiens) (UniProt P31751); test: Selectivity interaction (Millipore kinase profiler) EUB0000124b AKT2; details: at 10 µM
[9] = target: Beta-2 adrenergic receptor (Homo sapiens, UniProt P07550); test: Selectivity interaction (Panel of kinases, GPCRs, ion channels and transporters (enzymatic assay)) EUB0000223bCl ADRB2
[10] = target: Bone morphogenetic protein receptor type-1A (Homo sapiens, UniProt P36894); test: Selectivity interaction (KinomeScan (DiscoverX)) EUB0000655a BMPR1A; details: at 10 µM
Sequence of Bone morphogenetic protein receptor type-1A (P36894 whole entry): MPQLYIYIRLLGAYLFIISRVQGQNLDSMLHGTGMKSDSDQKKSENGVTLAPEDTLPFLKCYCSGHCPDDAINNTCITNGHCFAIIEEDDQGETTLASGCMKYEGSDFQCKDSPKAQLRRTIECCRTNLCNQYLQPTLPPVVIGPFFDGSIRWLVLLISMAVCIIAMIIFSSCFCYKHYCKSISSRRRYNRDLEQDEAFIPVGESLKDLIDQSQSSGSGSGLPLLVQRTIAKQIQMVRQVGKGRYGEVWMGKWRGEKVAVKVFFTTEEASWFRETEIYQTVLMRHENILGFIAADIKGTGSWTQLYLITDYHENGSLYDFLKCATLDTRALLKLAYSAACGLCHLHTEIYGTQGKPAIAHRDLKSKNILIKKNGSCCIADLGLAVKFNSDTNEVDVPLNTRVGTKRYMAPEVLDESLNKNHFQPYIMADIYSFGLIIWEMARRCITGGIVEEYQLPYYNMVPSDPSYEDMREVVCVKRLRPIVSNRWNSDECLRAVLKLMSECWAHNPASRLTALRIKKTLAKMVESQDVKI

[11] = target: Wee1-like protein kinase (Homo sapiens) (UniProt P30291); test: Selectivity interaction (KinomeScan (DiscoverX)) EUB0000655a WEE1; details: at 10 µM
[12] = tested on: Tyrosine-protein kinase ABL1 (Homo sapiens), P00519 [T315I]; test: Selectivity interaction (KinomeScan (DiscoverX)) EUB0001079a ABL1; details: at 1 µM
[13] = target: Myosin light chain kinase 2, skeletal/cardiac muscle (Homo sapiens) (UniProt Q9H1R3); test: Selectivity interaction (KinomeScan (DiscoverX)) EUB0001079a MYLK2; details: at 1 µM
Sequence of Myosin light chain kinase 2, skeletal/cardiac muscle (Homo sapiens) (Q9H1R3 whole entry): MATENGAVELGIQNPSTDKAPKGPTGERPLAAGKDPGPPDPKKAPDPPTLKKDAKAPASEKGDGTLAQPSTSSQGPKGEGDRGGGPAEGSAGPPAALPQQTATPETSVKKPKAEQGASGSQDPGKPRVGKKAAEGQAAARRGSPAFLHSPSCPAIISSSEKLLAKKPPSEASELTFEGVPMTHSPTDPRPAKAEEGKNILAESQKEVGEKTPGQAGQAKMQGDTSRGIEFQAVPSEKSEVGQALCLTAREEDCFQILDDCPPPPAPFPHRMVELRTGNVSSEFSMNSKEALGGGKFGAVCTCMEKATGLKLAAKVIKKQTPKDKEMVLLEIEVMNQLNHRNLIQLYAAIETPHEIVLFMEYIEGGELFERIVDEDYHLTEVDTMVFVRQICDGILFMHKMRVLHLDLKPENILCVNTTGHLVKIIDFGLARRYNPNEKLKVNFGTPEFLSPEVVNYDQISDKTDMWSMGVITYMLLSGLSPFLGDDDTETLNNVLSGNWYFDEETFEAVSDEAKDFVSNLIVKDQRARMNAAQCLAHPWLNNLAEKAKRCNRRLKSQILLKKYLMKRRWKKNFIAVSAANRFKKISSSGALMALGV

[14] = target: Mitogen-activated protein kinase kinase kinase 9 (Homo sapiens) (UniProt P80192); test: Selectivity interaction (KinomeScan (DiscoverX)) EUB0000229b MAP3K9; details: at 10 µM
Sequence of Mitogen-activated protein kinase kinase kinase 9 (Homo sapiens) (P80192 whole entry, looked up): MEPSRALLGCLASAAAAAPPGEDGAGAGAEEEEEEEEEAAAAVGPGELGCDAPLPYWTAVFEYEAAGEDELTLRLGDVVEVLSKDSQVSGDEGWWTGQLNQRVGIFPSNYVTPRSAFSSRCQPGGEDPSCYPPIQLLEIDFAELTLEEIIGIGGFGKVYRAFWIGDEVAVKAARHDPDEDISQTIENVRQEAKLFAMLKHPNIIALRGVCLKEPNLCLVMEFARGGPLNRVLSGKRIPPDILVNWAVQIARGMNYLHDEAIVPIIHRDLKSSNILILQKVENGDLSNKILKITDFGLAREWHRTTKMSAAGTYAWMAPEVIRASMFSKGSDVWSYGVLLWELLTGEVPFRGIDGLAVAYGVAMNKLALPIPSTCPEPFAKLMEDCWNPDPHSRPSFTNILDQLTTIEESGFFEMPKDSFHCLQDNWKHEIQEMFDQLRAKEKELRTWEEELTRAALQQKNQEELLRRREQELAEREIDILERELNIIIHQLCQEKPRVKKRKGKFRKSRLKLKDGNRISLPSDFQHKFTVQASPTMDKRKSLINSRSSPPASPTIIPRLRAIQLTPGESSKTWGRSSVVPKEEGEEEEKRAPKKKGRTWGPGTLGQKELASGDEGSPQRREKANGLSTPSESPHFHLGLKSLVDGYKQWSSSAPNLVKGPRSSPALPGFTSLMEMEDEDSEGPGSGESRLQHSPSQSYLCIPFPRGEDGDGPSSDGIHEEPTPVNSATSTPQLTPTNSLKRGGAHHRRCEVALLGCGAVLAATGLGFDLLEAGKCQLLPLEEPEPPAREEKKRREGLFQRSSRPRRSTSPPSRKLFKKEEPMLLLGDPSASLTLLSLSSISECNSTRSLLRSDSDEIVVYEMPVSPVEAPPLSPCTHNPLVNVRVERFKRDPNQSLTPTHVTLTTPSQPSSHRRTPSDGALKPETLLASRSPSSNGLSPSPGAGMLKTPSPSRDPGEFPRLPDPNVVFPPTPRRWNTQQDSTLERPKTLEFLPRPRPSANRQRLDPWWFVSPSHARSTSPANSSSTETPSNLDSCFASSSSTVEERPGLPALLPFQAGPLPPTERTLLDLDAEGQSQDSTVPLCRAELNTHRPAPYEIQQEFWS

[15] = target: Vascular endothelial growth factor receptor 3 (Homo sapiens, UniProt P35916); test: Selectivity interaction (KinomeScan (DiscoverX)) EUB0000092b FLT4; details: at 10 µM
[16] = target: Serine/threonine-protein kinase MARK2 (Homo sapiens) (UniProt Q7KZI7); test: Selectivity interaction (KinomeScan (DiscoverX)) EUB0000618a MARK2; details: at 10 µM
Sequence of Serine/threonine-protein kinase MARK2 (Homo sapiens) (Q7KZI7 whole entry): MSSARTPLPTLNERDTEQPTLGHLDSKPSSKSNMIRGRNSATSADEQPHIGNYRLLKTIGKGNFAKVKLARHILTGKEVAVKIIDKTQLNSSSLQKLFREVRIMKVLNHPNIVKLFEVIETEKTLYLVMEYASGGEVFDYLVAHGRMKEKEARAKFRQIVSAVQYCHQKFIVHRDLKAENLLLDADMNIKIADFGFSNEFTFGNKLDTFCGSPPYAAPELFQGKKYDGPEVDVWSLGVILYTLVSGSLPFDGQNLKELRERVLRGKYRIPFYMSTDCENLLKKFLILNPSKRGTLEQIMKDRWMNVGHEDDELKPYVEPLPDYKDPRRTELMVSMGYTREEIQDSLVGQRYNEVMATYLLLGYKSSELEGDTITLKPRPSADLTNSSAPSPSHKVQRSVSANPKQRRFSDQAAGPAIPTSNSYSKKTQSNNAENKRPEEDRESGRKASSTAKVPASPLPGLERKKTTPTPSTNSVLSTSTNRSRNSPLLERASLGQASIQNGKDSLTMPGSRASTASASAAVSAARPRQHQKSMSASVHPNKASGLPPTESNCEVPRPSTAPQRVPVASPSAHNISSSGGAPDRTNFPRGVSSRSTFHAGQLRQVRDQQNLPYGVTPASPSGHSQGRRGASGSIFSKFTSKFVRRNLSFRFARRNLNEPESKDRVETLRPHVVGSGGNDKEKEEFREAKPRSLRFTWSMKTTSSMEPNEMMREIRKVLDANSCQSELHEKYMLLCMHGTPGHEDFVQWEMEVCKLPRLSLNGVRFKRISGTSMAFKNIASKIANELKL

[17] = target: Tyrosine-protein kinase BTK (Homo sapiens, UniProt Q06187); test: Selectivity interaction (ActivX KiNativ screen (ex vivo kinase selectivity in human PBMCs)) EUB0001619a BTK; format: cell-based; details: PBMC, at 1 µM
Sequence of Tyrosine-protein kinase BTK (Q06187 whole entry): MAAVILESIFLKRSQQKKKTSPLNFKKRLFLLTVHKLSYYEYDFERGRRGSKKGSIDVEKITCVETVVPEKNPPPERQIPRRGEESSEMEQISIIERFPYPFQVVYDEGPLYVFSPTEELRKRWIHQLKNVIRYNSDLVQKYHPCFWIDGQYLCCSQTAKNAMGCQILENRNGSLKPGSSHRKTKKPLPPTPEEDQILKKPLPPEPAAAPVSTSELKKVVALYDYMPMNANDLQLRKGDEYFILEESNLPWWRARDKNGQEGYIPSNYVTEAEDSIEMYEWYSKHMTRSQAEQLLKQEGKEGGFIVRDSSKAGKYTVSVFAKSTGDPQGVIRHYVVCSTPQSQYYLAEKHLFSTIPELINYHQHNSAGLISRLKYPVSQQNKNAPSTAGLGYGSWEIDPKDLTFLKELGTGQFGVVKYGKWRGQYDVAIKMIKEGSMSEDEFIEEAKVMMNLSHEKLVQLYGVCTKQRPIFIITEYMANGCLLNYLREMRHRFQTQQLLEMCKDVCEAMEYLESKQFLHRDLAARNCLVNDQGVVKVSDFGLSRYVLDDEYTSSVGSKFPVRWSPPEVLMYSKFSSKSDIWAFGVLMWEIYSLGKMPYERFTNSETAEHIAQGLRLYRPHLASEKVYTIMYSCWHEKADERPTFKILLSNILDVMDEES

In the case of `CNC(=O)Nc1ccc(-c2nc(N3CC4CCC(C3)O4)c3cnn(C4CCC5(CC4)OCCO5)c3n2)cc1`, the % of inhibition [1] is reported as 4%, the % of control [2] is reported as 54% and the % of inhibition [3] is reported as 2%.

Work on `CC[C@@H]1[C@H](F)C(=O)N[C@@H]1COc1nccc2cc(C(N)=O)c(OC)cc12` [ZIMLOVISERTIB] yielded a % of inhibition [4] of 24.2%.

With `CN(C)C(=O)Cn1cc(-c2ccc(-c3cncc4ccccc34)cc2)cn1` the % of control [5] was 59%.

In the case of `Cc1cc(F)c(C(=O)Nc2cccc(-c3nncn3C(C)C)n2)cc1-n1cnc(C2CC2)c1`, the % of control [6] is reported as 97%.

For `COCC(=O)NC/C=C/c1ccc2ncnc(Nc3ccc(Oc4ccc(C)nc4)c(C)c3)c2c1` [CP-724714], the % of control [7] was 100%.

In the case of `CC(=O)Nc1cccc(-n2c(=O)n(C3CC3)c(=O)c3c(Nc4ccc(I)cc4F)n(C)c(=O)c(C)c32)c1`, the % of control [8] is reported as 103%.

`COc1cc(C(=O)N2CC[C@@H](O)[C@@H](N)C2)cc2nc(-c3cc4ccccc4n3CC3CC3)n(C)c12` was tested, and the pXC50 [9] was less than 4.5 M.

Work on `CN(C)CCOc1ccc(-c2nc(-c3ccncc3)c(-c3ccc4c(c3)CC/C4=N\O)[nH]2)cc1` yielded a % of control [10] of 100% and a % of control [11] of 100%.

In the case of `Nc1cnc(N2CCc3cc(S(=O)(=O)Nc4c(F)cc(Cl)cc4F)cc(N4CCCC4=O)c32)nc1` [TP-020n], the % of control [12] is reported as 98% and the % of control [13] is reported as 87%.

In the case of `COc1cc(N(C)c2ccnc3ccc(C(F)(F)F)cc23)cc(OC)c1OC`, the % binding [14] is reported as 88%.

Compound `CCC(=O)N1CCN(c2ccc(-n3c(=O)ccc4cnc5ccc(-c6cnc7ccccc7c6)cc5c43)cc2C(F)(F)F)CC1` has a % of control [15] of 74%.

With `O[C@H]1CC[C@H](Nc2ncc3nc(Nc4c(F)cc(F)cc4F)n([C@H]4CCOC4)c3n2)CC1` the % of control [16] was 100%.

Work on `N#Cc1cccc(-c2c[nH]c3ncnc(N4CCOCC4)c23)c1` yielded a % of inhibition [17] of 13%.
